Data as given in patent publication US9988371B2, “Benzimidazole analogues and related methods” (The Arizona Board of Regents, on Behalf of the University …, priority 2014, dated 2018).
pIC50: −log10 of the molar value.

Key:
VEGFR2 = VEGFR2 (Homo sapiens, UniProt P35968); assay: VEGFR2 biochemical assay; settings: exact potency beyond measurable limit
Experimental: Suitable screening assays for RET and VEGFR2 small molecule kinase inhibitors (from a kinase-directed fragment (KDF) library) were established. The RET kinase assay utilizes an EZ Reader Electrophoresis Mobility Chip Instrument (Caliper Life Science). In the assay, 2 nM recombinant RET enzyme (Invitrogen) is pre-incubated with a small molecule inhibitor or control buffer for 30 min to allow the Type-II kinase inhibitor to trap the DFG-out conformation to which the inhibitors bind. This class of inhibitors is indirectly competitive with ATP, and slow binding kinetics (low kd) allow the inhibitors to appear non-competitive and pseudo-irreversible in nature. Because of the non-competitive nature of these inhibitors, a more biologically relevant concentration of ATP substrate (200 μM) was incorporated in this assay. After 30 min of pre-incubation, a substrate mix containing […], 20 mM MgCl2 and 1.5 μM fluorescently labeled RET substrate peptide (Caliper LS, peptide 22; Perkin Elmer, USA) was added. The conversion level of the RET substrate peptide was then determined utilizing the EZ Reader instrument. Similarly, VEGFR2 and RET/V804M kinase assays have also been established using the same peptide substrate.
The VEGFR-2 assay was identical to the RET assay except that 1-2 nM recombinant VEGFR-2 was used instead of RET.

hERG (relative to RET) = target: T1, hERG (relative to RET) (Homo sapiens, UniProt Q12809); assay: patch clamp hERG assay; type: cell-based; settings: human; read-out: selectivity for RET over hERG
T1 construct: purchased GenScript
Experimental: (§1) Pz-1 was minimally active in the patch clamp hERG assay, with an IC50 for the hERG assay of 10 μM (GenScript).

hERG = target: T2, hERG (Homo sapiens, UniProt Q12809); assay: patch clamp hERG assay; type: cell-based; settings: patch clamp (GenScript)
T2 construct: purchased GenScript
Experimental: as §1

RET/C634W = target: T3, RET/C634W (Homo sapiens, UniProt P07949, C634W); assay: RET auto-phosphorylation immunoblot in TT cells; type: cell-based; settings: 1 nM
T3 construct: RET protein endogenously expressed in TT cells; endogenous in cells; host or cells: TT (human medullary thyroid carcinoma)
Experimental: FIG. 3: Photographs of blots showing inhibition of RET protein endogenously expressed in TT cells (human MTC cell line expressing RET/C634W) by indicated concentrations of Pz-1 or vehicle (NT: not treated) and reduced effects in thyroid non-transformed Nthy-ori-3-1 cells. Serum-starved human TT and thyroid non-transformed Nthy-ori-3-1 cell lines were treated for 2 hr with indicated concentrations of Pz-1. 50 μg of total cell lysates were subjected to immunoblotting with anti-phospho-Y1062 (αp1062) and anti-phospho-905 (αpY905) RET antibodies, anti-phospho-MAPK (αpMAPK, T302/Y304), and anti-phospho-SHC (αpSHC, Y317) antibodies. The blots were normalized using anti-RET (αRET) and anti-SHC (αSHC).
The inhibition of RET auto-phosphorylation by Pz-1 was measured in several different cell lines including NIH3T3 fibroblasts expressing RET/C634Y or RET/M918T, TT expressing RET/C634W (MTC), Nthy-ory-3-1 (thyroid, non-transformed with RET; negative control), HEK293/RET/PTC1 (CCDC6-RET that can be found in PTC & lung cancer), HEK293/RET-KIF5B (that can be found in lung cancer), HEK293/RET/PTC3 (NCOA4-RET, that can be found in PTC & lung cancer), and HEK293 transfected with RET/C634R-V804M (FIGS. 1-3). […]
Protein lysates were prepared according to standard procedures. […] Immune complexes were detected with the enhanced chemiluminescence kit (Amersham Pharmacia Biotech, Little Chalfort, UK). […]

[1] = test system: parental NIH3T3 fibroblasts; assay: Growth of parental NIH3T3 fibroblasts; type: cell-based; settings: up to 1000 nM, 3 days

VEGFR2, sequence (P35968 834-1162 limits assumed): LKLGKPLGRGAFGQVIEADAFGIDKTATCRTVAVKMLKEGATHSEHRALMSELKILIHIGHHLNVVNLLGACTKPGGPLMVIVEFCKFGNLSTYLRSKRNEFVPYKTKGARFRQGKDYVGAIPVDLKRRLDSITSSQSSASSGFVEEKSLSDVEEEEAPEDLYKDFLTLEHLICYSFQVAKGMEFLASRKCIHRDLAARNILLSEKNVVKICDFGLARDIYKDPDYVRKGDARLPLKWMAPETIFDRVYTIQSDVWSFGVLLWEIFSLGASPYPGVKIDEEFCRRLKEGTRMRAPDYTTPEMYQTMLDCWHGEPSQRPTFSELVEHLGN
T3 sequence (P07949 29-1114 C634W): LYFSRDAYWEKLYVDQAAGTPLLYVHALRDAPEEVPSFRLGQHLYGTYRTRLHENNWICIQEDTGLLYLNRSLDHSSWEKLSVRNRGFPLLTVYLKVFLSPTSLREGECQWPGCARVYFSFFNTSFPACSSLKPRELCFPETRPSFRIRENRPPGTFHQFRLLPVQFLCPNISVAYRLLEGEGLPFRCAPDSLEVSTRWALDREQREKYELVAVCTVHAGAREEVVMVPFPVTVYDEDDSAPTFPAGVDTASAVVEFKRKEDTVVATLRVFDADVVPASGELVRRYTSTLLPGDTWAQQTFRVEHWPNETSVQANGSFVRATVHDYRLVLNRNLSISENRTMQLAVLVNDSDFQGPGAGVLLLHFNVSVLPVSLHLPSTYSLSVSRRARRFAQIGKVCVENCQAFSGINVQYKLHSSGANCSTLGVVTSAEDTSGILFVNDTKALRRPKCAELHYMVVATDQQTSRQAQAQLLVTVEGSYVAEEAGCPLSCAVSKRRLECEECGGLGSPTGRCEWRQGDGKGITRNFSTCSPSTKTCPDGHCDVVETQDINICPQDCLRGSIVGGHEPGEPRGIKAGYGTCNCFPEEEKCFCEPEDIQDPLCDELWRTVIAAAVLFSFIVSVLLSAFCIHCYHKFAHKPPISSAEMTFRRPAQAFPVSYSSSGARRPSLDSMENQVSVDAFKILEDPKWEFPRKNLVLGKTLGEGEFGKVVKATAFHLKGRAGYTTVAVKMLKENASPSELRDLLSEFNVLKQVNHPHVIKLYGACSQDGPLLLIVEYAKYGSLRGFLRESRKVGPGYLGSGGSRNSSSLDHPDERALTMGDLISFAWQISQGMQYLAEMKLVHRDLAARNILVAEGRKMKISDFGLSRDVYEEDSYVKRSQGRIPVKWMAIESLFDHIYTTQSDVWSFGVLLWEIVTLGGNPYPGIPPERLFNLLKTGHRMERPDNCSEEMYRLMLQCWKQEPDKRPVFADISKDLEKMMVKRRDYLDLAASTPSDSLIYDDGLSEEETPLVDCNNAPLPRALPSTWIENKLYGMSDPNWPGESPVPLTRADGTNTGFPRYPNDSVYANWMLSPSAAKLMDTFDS
T1 sequence (Q12809 whole entry): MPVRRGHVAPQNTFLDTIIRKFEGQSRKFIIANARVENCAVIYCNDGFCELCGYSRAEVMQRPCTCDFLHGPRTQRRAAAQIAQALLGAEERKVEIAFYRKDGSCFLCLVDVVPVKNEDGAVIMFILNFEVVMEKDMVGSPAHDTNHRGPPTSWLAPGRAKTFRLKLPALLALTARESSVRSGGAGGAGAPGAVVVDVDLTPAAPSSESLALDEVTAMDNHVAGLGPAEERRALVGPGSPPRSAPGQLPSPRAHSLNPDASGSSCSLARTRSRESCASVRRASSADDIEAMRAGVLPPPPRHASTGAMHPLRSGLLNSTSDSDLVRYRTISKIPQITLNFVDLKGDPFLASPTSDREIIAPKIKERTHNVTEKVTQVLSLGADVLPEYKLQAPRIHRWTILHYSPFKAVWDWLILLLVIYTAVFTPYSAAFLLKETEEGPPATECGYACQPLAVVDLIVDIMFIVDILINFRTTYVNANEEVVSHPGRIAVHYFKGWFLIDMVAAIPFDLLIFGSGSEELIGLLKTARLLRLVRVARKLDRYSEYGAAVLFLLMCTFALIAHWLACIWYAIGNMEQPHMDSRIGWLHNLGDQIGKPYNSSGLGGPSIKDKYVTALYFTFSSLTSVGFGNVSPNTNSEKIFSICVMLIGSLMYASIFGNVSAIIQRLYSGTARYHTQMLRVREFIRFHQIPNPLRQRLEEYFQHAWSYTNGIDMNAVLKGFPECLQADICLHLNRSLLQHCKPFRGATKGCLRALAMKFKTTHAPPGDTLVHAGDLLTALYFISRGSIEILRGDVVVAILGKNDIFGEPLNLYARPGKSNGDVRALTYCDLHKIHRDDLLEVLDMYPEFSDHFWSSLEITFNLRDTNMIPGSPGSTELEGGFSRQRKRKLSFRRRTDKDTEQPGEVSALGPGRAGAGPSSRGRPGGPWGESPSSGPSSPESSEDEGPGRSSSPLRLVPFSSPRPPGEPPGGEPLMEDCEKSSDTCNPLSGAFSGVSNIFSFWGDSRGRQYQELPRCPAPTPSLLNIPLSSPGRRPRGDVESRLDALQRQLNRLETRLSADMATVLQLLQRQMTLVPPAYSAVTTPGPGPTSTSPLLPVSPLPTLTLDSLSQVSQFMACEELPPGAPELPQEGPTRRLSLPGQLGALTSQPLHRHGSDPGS
T2 sequence (Q12809 whole entry): as above

`Cn1cc(-c2ccc3c(c2)ncn3-c2ccc(CC(=O)Nc3cc(C(C)(C)C)on3)cc2)cn1` [Pz-1, N-(5-(tert-butyl)isoxazol-3-yl)-2-(4-(5-(1-methyl-1H-pyrazol-4-yl)-1H-benzo[d]imidazol-1-yl)phenyl)acetamide] was tested, and the pIC50 (VEGFR2) was over 9.00, the selectivity ratio (hERG (relative to RET)) was 10000 and the pIC50 (hERG) was 5.00. The “inhibition of pRET” value (RET/C634W) was “strongly inhibited” and the effect on growth [1] was “did not significantly reduce growth”.
